{
  "source": "ChEMBL document CHEMBL3638462",
  "about": "“Pyridine and pyrimidine derivatives as phosphodiesterase 10 inhibitors” (2014)",
  "note": "“And” between values parts separate entries of the source, which are not always exact repeats. Equal values may be shown once.",
  "data": [
    {"target": "cAMP and cAMP-inhibited cGMP 3',5'-cyclic phosphodiesterase 10A (Homo sapiens, UniProt Q9Y233)", "sequence (Q9Y233 whole entry)": "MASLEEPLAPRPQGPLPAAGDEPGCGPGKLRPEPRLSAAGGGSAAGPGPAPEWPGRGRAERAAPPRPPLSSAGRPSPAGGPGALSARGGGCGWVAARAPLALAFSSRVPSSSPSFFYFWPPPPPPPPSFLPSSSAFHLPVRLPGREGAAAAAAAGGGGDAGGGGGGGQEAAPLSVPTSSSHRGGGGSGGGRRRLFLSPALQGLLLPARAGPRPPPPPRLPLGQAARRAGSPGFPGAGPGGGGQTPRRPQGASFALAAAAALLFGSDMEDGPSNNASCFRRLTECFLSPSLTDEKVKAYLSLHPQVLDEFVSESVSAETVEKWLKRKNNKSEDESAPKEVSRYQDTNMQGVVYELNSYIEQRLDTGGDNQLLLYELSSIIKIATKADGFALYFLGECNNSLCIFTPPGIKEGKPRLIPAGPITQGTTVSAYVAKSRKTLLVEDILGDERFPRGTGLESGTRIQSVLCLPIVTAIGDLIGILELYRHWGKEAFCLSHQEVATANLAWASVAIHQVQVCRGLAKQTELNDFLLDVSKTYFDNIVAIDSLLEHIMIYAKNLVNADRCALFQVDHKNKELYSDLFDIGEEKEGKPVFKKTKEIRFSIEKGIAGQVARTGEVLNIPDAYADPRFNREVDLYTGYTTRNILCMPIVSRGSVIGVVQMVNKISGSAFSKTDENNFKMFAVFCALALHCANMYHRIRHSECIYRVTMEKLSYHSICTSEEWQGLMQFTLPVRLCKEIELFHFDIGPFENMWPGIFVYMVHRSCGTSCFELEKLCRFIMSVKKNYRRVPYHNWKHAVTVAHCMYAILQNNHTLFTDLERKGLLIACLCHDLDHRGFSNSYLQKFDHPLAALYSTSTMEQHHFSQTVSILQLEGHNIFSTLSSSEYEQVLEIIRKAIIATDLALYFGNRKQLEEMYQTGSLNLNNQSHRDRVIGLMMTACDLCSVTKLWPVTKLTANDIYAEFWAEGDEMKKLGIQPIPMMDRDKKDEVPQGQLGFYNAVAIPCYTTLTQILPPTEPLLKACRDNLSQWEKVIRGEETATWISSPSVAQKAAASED", "experiment": "Enzyme Inhibition Assay: To check the inhibition profile, 5 μL of serial diluted compounds were incubated with 5 μL of diluted PDE10 enzyme (BPS Bioscience, San Diego, Calif.) or tissue homogenate in a 384-well polystyrene assay plate (Corning, Corning, N.Y.) for 30 min at room temperature. After incubation, 10 μL of diluted fluorescein labeled cAMP or cGMP substrate were added and incubated for 60 min at room temperature. The reaction was stopped by adding 60 μL of diluted binding reagents and plates were read on an Envision (Perkin Elmer, Waltham, Mass.) for time resolved fluorescence resonance energy transfer. The data were analyzed with GraphPad Prism (La Jolla, Calif.).", "values": [
      {"smiles": "CC(C)c1ccc(Cn2c(Nc3ccc(Oc4ncccc4C4CCOCC4)cc3)nc3ccccc32)cc1", "IC50": "31.9 nM"},
      {"smiles": "C[C@]1(O)CCC[C@H](c2cccnc2Oc2ccc(Nc3ccccn3)cc2)C1", "IC50": "24.2 nM"},
      {"smiles": "O=C(c1ccc(Oc2ncccc2[C@@H]2CCOC2)cc1)c1nc2ccccc2[nH]1", "IC50": "0.92 nM"},
      {"smiles": "O[C@@H]1CCC[C@H](c2cccnc2Oc2ccc(Nc3nc4ccccc4s3)cc2)C1", "IC50": "2.21 nM"},
      {"smiles": "C[C@H](Cc1ccc(F)cc1)NC(=O)c1cccnc1Oc1ccc(C(=O)c2nc3ccccc3[nH]2)cc1", "IC50": "0.135 nM"},
      {"smiles": "COc1cncc(-c2cccnc2Oc2ccc(C(=O)c3nc4ccccc4[nH]3)cc2)c1", "IC50": "0.622 nM"},
      {"smiles": "COc1ccc(-c2cccnc2Oc2ccc(C(=O)c3nc4ccccc4[nH]3)cc2)cn1", "IC50": "1.27 nM"},
      {"smiles": "C[C@H](Cc1ccccn1)NC(=O)c1cccnc1Oc1ccc(C(=O)c2nc3ccccc3[nH]2)cc1", "IC50": "6.83 nM"},
      {"smiles": "c1cnc(Oc2ccc(Nc3nc4ccccc4s3)cc2)c([C@H]2CCOC2)c1", "IC50": "0.865 nM"},
      {"smiles": "O=C(c1ccc(Oc2ncccc2[C@H]2CCC[C@@H](O)C2)cc1)c1nc2ccccc2[nH]1", "IC50": "0.99 nM"},
      {"smiles": "C[C@]1(O)CCCC(c2cccnc2Oc2ccc(C(=O)c3nc4ccccc4[nH]3)cc2)C1", "note": "(some centres undefined)", "IC50": "1.22 nM"},
      {"smiles": "C[C@]1(O)CC[C@@H](c2cccnc2Oc2ccc(Nc3nc4ccccc4s3)cc2)CC1", "IC50": "12.6 nM"},
      {"smiles": "C[C@]1(O)CC[C@@H](c2cccnc2Oc2ccc(C(=O)c3nc4ccccc4[nH]3)cc2)CC1", "IC50": "1.63 nM"},
      {"smiles": "C[C@]1(O)CC[C@H](c2cccnc2Oc2ccc(C(=O)c3nc4ccccc4[nH]3)cc2)CC1", "IC50": "1.42 nM"},
      {"smiles": "C[C@]1(O)CC[C@H](c2cccnc2Oc2ccc(Nc3nc4ccccc4s3)cc2)CC1", "IC50": "4.51 nM"},
      {"smiles": "c1cnc(Oc2ccc(Nc3nc4ccccc4s3)cc2)c([C@@H]2CCCOC2)c1", "IC50": "2.49 nM"},
      {"smiles": "Cn1c(C(=O)c2ccc(Oc3ncccc3C3(F)CCOCC3)cc2)nc2ccccc21", "IC50": "0.749 nM"},
      {"smiles": "CC(=O)N1CCC[C@@H](c2cccnc2Oc2ccc(Nc3nc4ccccc4s3)cc2)C1", "IC50": "0.268 nM"},
      {"smiles": "O[C@@H]1CC[C@H](c2cccnc2Oc2ccc(Nc3nc4ccccc4s3)cc2)C1", "IC50": "2.64 nM"},
      {"smiles": "COc1ncccc1-c1cccnc1Oc1ccc(Nc2nc3ccccc3s2)cc1", "IC50": "2.54 nM"},
      {"smiles": "COc1cccc(-c2cccnc2Oc2ccc(Nc3nc4ccccc4s3)cc2)n1", "IC50": "164 nM"},
      {"smiles": "O[C@H]1CCC[C@@H](c2cccnc2Oc2ccc(Nc3nc4ccccc4s3)cc2)C1", "IC50": "3.75 nM"},
      {"smiles": "O[C@H]1CC[C@H](c2cccnc2Oc2ccc(Nc3nc4ccccc4s3)cc2)C1", "IC50": "1.21 nM"},
      {"smiles": "O[C@H]1CC[C@@H](c2cccnc2Oc2ccc(Nc3nc4ccccc4s3)cc2)C1", "IC50": "2.54 nM"},
      {"smiles": "O[C@H]1CC[C@H](c2cccnc2Oc2ccc(Nc3nc4ccccc4s3)cc2)CC1", "IC50": "6.38 nM"},
      {"smiles": "O[C@H]1CC[C@@H](c2cccnc2Oc2ccc(Nc3nc4ccccc4s3)cc2)CC1", "IC50": "1.63 nM"},
      {"smiles": "O=C(c1ccc(Oc2ncccc2C2CCOCC2)cc1)c1nc2ncccc2[nH]1", "IC50": "1.34 nM"},
      {"smiles": "OC(c1ccc(Oc2ncccc2C2=CCOCC2)cc1)c1nc2ccccc2s1", "note": "(centres undefined)", "IC50": "516 nM"},
      {"smiles": "O=C(c1ccc(Oc2ncccc2[C@H]2CC[C@@H](O)CC2)cc1)c1nc2ccccc2[nH]1", "IC50": "0.308 nM"},
      {"smiles": "O=C(c1ccc(Oc2ncccc2[C@H]2CC[C@H](O)CC2)cc1)c1nc2ccccc2[nH]1", "IC50": "0.101 nM"},
      {"smiles": "O=C(c1ccc(Oc2ncccc2[C@H]2CC[C@](O)(C(F)(F)F)CC2)cc1)c1nc2ccccc2[nH]1", "IC50": "12.7 nM"},
      {"smiles": "CC(=O)N1CCCC[C@@H]1c1cccnc1Oc1ccc(C(=O)c2nc3ccccc3[nH]2)cc1", "IC50": "0.0645 nM"},
      {"smiles": "COc1cccnc1-c1cccnc1Oc1ccc(Nc2nc3ccccc3s2)cc1", "IC50": "232 nM"},
      {"smiles": "COc1cccc(-c2cccnc2Oc2ccc(C(=O)c3nc4ccccc4[nH]3)cc2)n1", "IC50": "2.32 nM"},
      {"smiles": "O=C(c1ccc(Oc2ncccc2[C@H]2CC[C@@](O)(C(F)(F)F)C2)cc1)c1nc2ccccc2[nH]1", "IC50": "0.728 nM"},
      {"smiles": "O=C(c1ccc(Oc2ncccc2[C@@H]2CC[C@](O)(C(F)(F)F)C2)cc1)c1nc2ccccc2[nH]1", "IC50": "1.59 nM"},
      {"smiles": "O=C(c1ccc(Oc2ncccc2[C@H]2CC[C@]3(CCO3)CC2)cc1)c1nc2ccccc2[nH]1", "IC50": "0.641 nM"},
      {"smiles": "C[C@]1(O)CC[C@H](c2cccnc2Oc2ccc(C(=O)c3nc4ccccc4[nH]3)cc2)C1", "IC50": "0.662 nM"},
      {"smiles": "C[C@]1(O)CC[C@@H](c2cccnc2Oc2ccc(C(=O)c3nc4ccccc4[nH]3)cc2)C1", "IC50": "0.763 nM"},
      {"smiles": "COc1cccnc1-c1cccnc1Oc1ccc(C(=O)c2nc3ccccc3[nH]2)cc1", "IC50": "17.1 nM"},
      {"smiles": "O=C(c1ccc(Oc2ncccc2[C@@H]2CC[C@@H](CO)C2)cc1)c1nc2ccccc2[nH]1", "IC50": "0.315 nM"},
      {"smiles": "O=C(c1ccc(Oc2ncccc2[C@@H]2CC[C@H](CO)C2)cc1)c1nc2ccccc2[nH]1", "IC50": "0.312 nM"},
      {"smiles": "O=C(c1ccc(Oc2ncccc2[C@H]2CC[C@@H](CO)C2)cc1)c1nc2ccccc2[nH]1", "IC50": "0.212 nM"},
      {"smiles": "CC(=O)N1CC=C(c2cncnc2Oc2ccc(C(=O)c3nc4ccccc4[nH]3)cc2)CC1", "IC50": "1.56 nM"},
      {"smiles": "COc1cncc(-c2cccnc2Oc2ccc(Nc3nc4ccccc4s3)cc2)c1", "IC50": "4.08 nM"},
      {"smiles": "COc1ccc(-c2cccnc2Oc2ccc(C(=O)c3nc4ccccc4[nH]3)cc2)nc1", "IC50": "8.77 nM"},
      {"smiles": "O=C(c1ccc(Oc2ncccc2[C@@H]2CCCOCC2)cc1)c1nc2ccccc2[nH]1", "IC50": "0.0505 nM"},
      {"smiles": "O=C(c1ccc(Oc2ncccc2-c2ccnc(Cl)c2)cc1)c1nc2ccccc2[nH]1", "IC50": "1.63 nM"},
      {"smiles": "C[C@@]1(O)CC[C@@H](c2cccnc2Oc2ccc(Nc3nc4ccccc4s3)cc2)C1", "IC50": "10.7 nM"},
      {"smiles": "C[C@]1(O)CC[C@H](c2cccnc2Oc2ccc(Nc3nc4ccccc4s3)cc2)C1", "IC50": "2.31 nM"},
      {"smiles": "O[C@H]1CCC[C@H](c2cccnc2Oc2ccc(Nc3nc4ccccc4s3)cc2)C1", "IC50": "9.93 nM"},
      {"smiles": "O=C1CCCC(c2cccnc2Oc2ccc(C(=O)c3nc4ccccc4[nH]3)cc2)CC1", "note": "(centres undefined)", "IC50": "0.077 nM"},
      {"smiles": "Fc1ccc(Cn2c(Nc3ccc(Oc4ncccc4C4CCOCC4)cc3)nc3ccccc32)cc1", "IC50": "9.12 nM"},
      {"smiles": "O=C(c1ccc(Oc2ncccc2[C@@H]2CCC[C@@H](O)C2)cc1)c1nc2ccccc2[nH]1", "IC50": "0.145 nM and 0.585 nM"},
      {"smiles": "CC(=O)N1CCC(c2cccnc2Oc2ccc(C(=O)c3nc4ccccc4n3C)cc2)CC1", "IC50": "1.06 nM"},
      {"smiles": "COc1cnccc1-c1cccnc1Oc1ccc(C(=O)c2nc3ccccc3[nH]2)cc1", "IC50": "0.261 nM"},
      {"smiles": "O=C(c1ccc(Oc2ncccc2[C@H]2CCC[C@H](O)C2)cc1)c1nc2ccccc2[nH]1", "IC50": "1.71 nM"},
      {"smiles": "Cn1c(C(=O)c2ccc(Oc3ncccc3-c3ccnc(F)c3)cc2)nc2ccccc21", "IC50": "10.3 nM"},
      {"smiles": "Cc1cc(-c2cccnc2Oc2ccc(C(=O)c3nc4ccccc4n3C)cc2)ccn1", "IC50": "6.17 nM"},
      {"smiles": "CC(=O)N1CC[C@@H](c2cccnc2Oc2ccc(C(=O)c3nc4ccccc4[nH]3)cc2)C1", "IC50": "0.528 nM"},
      {"smiles": "COc1ccc(Cn2c(Nc3ccc(Oc4ncccc4C4CCOCC4)cc3)nc3ccccc32)cc1", "IC50": "1.7 nM"},
      {"smiles": "COc1nc2ccccc2cc1-c1cccnc1Oc1ccc(C(=O)c2nc3ccccc3[nH]2)cc1", "IC50": "419 nM"},
      {"smiles": "c1ccc(-n2ncc3cc(Oc4ncccc4C4CCCCC4)ccc32)nc1", "IC50": "417 nM"},
      {"smiles": "O=C(c1ccc(Oc2ncccc2-c2cccnc2F)cc1)c1nc2ccccc2[nH]1", "IC50": "0.162 nM"},
      {"smiles": "O=C(c1ccc(Oc2ncccc2-c2cc[nH]c(=O)c2)cc1)c1nc2ccccc2[nH]1", "IC50": "1.17 nM"},
      {"smiles": "COc1ccc(-c2cccnc2Oc2ccc(C(=O)c3nc4ccccc4[nH]3)cc2)c(OC)n1", "IC50": "0.694 nM"},
      {"smiles": "CSc1cncc(-c2cccnc2Oc2ccc(C(=O)c3nc4ccccc4[nH]3)cc2)c1", "IC50": "1.06 nM"},
      {"smiles": "O=C(c1ccc(Oc2ncccc2C2CCS(=O)(=O)CC2)cc1)c1nc2ccccc2[nH]1", "IC50": "0.631 nM"},
      {"smiles": "COc1cc(-c2cccnc2Oc2ccc(Nc3nc4ccccc4s3)cc2)ccn1", "IC50": "11.9 nM"}
    ]}
  ]
}
